According to US9834514B2, “Antibiotic sensitivity-restoring and photosensitive agents” (New Mexico Tech Research Foundation, priority 2015, dated 2017):
≈ marks a conversion by molar mass, not a printed value. Read-outs that look alike come from different tables or passages of the source.

Tests used:
S. aureus (ATCC 29213) [1] = test: MIC against drug sensitive S. aureus; type: cell-based; settings: Staphylococcus aureus, ATCC29213; ATCC 29213; read-out: S. aureus MIC
[2] = MIC against MRSA isolates; type: cell-based, S. aureus; settings: Staphylococcus aureus
Procedure: The MICs of S. aureus ATCC 33591, BAA-44, BAA-1707, BAA-1717, BAA-1720, BAA-1747, BAA-1754, BAA-1761, BAA-1763, BAA-1764, and BAA-1766 were measured using a cell concentration of about 5×10^5 colony forming units (CFU)/mL. In a 96-well microtiter plate, two-fold dilutions were made of each drug (starting with 100 μM) in 100 μL of a cell suspension in trypticase soy broth (TSB). The samples were incubated overnight at 37° C. on a rotary shaking incubator set at 100 revolutions per minute (rpm) and were visually inspected for turbidity. A 20% well-volume of 3-(4,5-dimethylthiazol-2-yl)-2,5-diphenyltetrazolium bromide (MTT reagent, 5 mg/mL) was added, and the samples were incubated for about 20 minutes. The MICs were determined as the lowest concentration at which full visual inhibition was observed by the unaided eye.

S. aureus (ATCC 29213) [3] = test: microbe, parasite or virus in culture; type: cell-based; settings: for MIC: Staphylococcus aureus
Procedure: Each mixture was incubated at 37° C. on a rotary shaking incubator for about 16 hours. MTT was then added to assess the viability of the cells (at 10% well volume). […] The cells were then streaked onto a TSA plate and incubated overnight at 37° C. These steps were repeated to reach a total of 30 exposures.

VRE = test: MIC against VRE; type: cell-based, Enterococcus faecalis; settings: Enterococcus, TABLE 23, read-out: VRE MIC
Procedure: In a 12×75 mm borosilicate glass culture tube, 1 mL of cell suspension was added. Then, compound 7 was added to the cells, and the samples were mixed using a vortex mixer. […] The samples were incubated overnight at 37° C. on a rotary shaking incubator at 100 rpm.

[4] = test system: K. pneumoniae ATCC BAA-2341; test: MIC of PMB and PME; type: cell-based; settings: K. pneumoniae ATCC BAA-2341 (so in the source)
Source text: (§1) TABLE 25 details the MICs of PMB and PME against E. cloacae and K. pneumoniae.

E. cloacae ATCC BAA-2341 = test: MIC of PMB and PME; type: cell-based
Source text: as §1

P. aeruginosa = test: MIC against P. aeruginosa; type: cell-based
Source text: Only compound 1 was able to decrease the CFU/mL when used in conjunction with white light to treat P. aeruginosa.

[5] = test system: A. baumannii (ATCC 15151); test: MIC against A. baumannii; type: cell-based
Procedure: TABLE 28 details the individual MIC values of compounds 1, 7, 8, 9, 10, 11, PMB, PME, and light against A. baumannii.
The MICs of PME and compounds 8-11 were determined against A. baumannii (ATCC 15151). […] After incubating the cells with PME, a compound (5 μM) was added, and the samples were further incubated at 37° C. At specific time points, samples were taken and diluted ten-fold in media. Ten microliters of each dilution was then drip-streaked onto an agar plate and incubated overnight at 37° C. Colony counts were then performed, and the CFU/mL were calculated.

E. coli = test: MIC against E. coli; type: cell-based
Source text: TABLE 18 details the obtained MIC values for cells treated with compound 1, light, PMB, and Polymyxin E (PME) against E. coli.

[6] = test system: Klebsiella pneumoniae (CRE, ATCC BAA-1705); test: MIC against CRE; type: cell-based
Procedure: TABLE 27 details the individual MIC values of compounds 1, 7, 8, 9, 10, 11, PMB, PME, and light against CRE.
The MICs of PME and compounds 8-11 were determined against Klebsiella pneumoniae (CRE, ATCC BAA-1705). […] After the incubation with PME, the compounds were added at a concentration of 20 μM, and the samples were further incubated. At specific time points, the samples were taken and diluted ten-fold in media. Ten microliters of each dilution was then drip-streaked onto an agar plate and incubated overnight at 37° C. Colony counts were then performed and the CFU/mL were calculated.

[7] = test system: Klebsiella pneumoniae (CRE, ATCC BAA-1705); test: Cell killing of CRE with compounds in presence or absence of PMB (CFU/mL); type: cell-based; settings: PMB alone
Procedure: Klebsiella pneumoniae (CRE, ATCC BAA-1705) was grown in TSB overnight at 37° C. and diluted to about 5×10^5 CFU/mL using a McFarland Latex Turbidity standard (0.5). One mL of the cell suspension was transferred to a glass culture test tube. PMB was added to the cell suspension resulting in a final concentration of 200 μg/mL of PMB. The cell suspension was incubated at 37° C. on a rotary shaking incubator at 150 rpm for 4 hours. Compounds 1, 7, 8, 9, 10, and 11 were added to the cell suspension, resulting in a concentration of 20 μM for each of the compounds. The cell suspensions containing the compounds were incubated at 37° C. on a rotary shaking incubator at 150 rpm for 4 hours. Each sample was diluted tenfold to a 10^−5 dilution. Ten 10 microliters of each dilution from each sample was dripped onto a TSA plate and allowed to streak down the plate. The agar plates were incubated at 37° C. for 18-24 hours. Colony counts were performed and CFU/mL values were calculated.
The MICs of PMB and compounds 7-11 were determined against Klebsiella pneumoniae (CRE, ATCC BAA-1705). […] After the incubation with PMB, each of the compounds was added at a concentration of 20 μM, and the samples were incubated for an additional 18 hours. A sample was taken and diluted ten-fold in media. Ten microliters of each dilution was then drip-streaked onto an agar plate and incubated overnight at 37° C. Colony counts were then performed and the concentrations of cells (CFU/mL) were calculated.

Cc1onc(-c2ccccc2)c1C(=O)N[C@@H]1C(=O)N2[C@@H]1SC(C)(C)[C@@H]2C(=O)O [Oxacillin, reference compound]
MIC (S. aureus (ATCC 29213) [1]): 0.5 µg/mL (≈ 1.25 µM) | MIC ([2]; antibiotics, MRSA isolate ATCC 33591): > 100 µg/mL | MIC ([2]; antibiotics, MRSA isolate ATCC BAA-44): 400 µg/mL (≈ 996 µM) | MIC ([2]; antibiotics, MRSA isolate ATCC BAA-1707): < 3.1 µg/mL | MIC ([2]; antibiotics, MRSA isolate ATCC BAA-1717): 200 µg/mL (≈ 498 µM) | MIC ([2]; antibiotics, MRSA isolate ATCC BAA-1720): > 100 µg/mL | MIC ([2]; antibiotics, MRSA isolate ATCC BAA-1747): 6.3 µg/mL (≈ 15.7 µM) | MIC ([2]; antibiotics, MRSA isolate ATCC BAA-1754): 50 µg/mL (≈ 125 µM) | MIC ([2]; antibiotics, MRSA isolate ATCC BAA-1761): 6.3 µg/mL (≈ 15.7 µM) | MIC ([2]; antibiotics, MRSA isolate ATCC BAA-1763): 50 µg/mL (≈ 125 µM) | MIC ([2]; antibiotics, MRSA isolate ATCC BAA-1764): 25 µg/mL (≈ 62.3 µM) | MIC ([2]; antibiotics, MRSA isolate ATCC BAA-1766): < 6.3 µg/mL | MIC ([2]; read-out: MRSA MIC, MRSA (ATCC BAA-44), TABLE 21): 400 µg/mL (≈ 996 µM) | Resistance Evolved (S. aureus (ATCC 29213) [3]): Yes | MIC (S. aureus (ATCC 29213) [3]; ATCC29213, read-out: Final MIC Apr. 16, 2015): > 8 µM | MIC (S. aureus (ATCC 29213) [3]; ATCC29213, read-out: Initial MIC Mar. 10, 2015): 0.25 µM (≈ 0.1 µg/mL) | MIC (VRE): 20 to 40 µg/mL (≈ 49.8 to 99.6 µM)

Polymyxin E [PME, reference compound]
MIC [4]: 16 µg/mL | MIC (E. cloacae ATCC BAA-2341): 16 µg/mL | MIC (P. aeruginosa): 2 µg/mL | A. baumannii MIC [5]: 0.5 µg/mL | E. Coli MIC (E. coli): 2 µg/mL | CRE MIC [6]: 4 µg/mL

polymyxin B [PMB, reference compound]
MIC (E. cloacae ATCC BAA-2341): 4 µg/mL | PMB @ 0.2 μg/mL [7]: 1.8 × 10^6 CFU/mL | A. baumannii MIC [5]: 4 µg/mL | E. Coli MIC (E. coli): 2 µg/mL | CRE MIC [6]: 4 µg/mL
